Data set [1] can be described thus: Storage at 25° C./93% RH for 1 week, re-analysis by XRPD/HPLC. It counts as physicochemical. To be noted: after 1 week, XRPD.
Data set [2] is described as follows: Storage at 40° C./75% RH (elevated humidity) for 1 week, re-analysis by XRPD/HPLC.
Experimental: The crystalline solids were filtered, dried at ambient conditions, and stored at 40° C./75% RH for 1 week and analyzed by ^1H NMR/IC.
(§1) Samples from the screen using amorphous free base Compound 1 were analysed by ^1H-NMR and DSC, and re-analysis by XRPD was also carried out after drying at 50° C./vacuum and storage at 40° C./75% RH (the same sample was dried and stored at elevated humidity).
A short description of data set [3]: Gravimetric vapour sorption (GVS). The data set is classed as physicochemical. To be noted: text statements; listed as Form 4. The procedure: Sorption isotherms were obtained using a Hiden IGASorp moisture sorption analyser, controlled by CFRSorp software. The sample temperature was maintained at 25° C. by a Huber re-circulating water bath. The humidity was controlled by mixing streams of dry and wet nitrogen, with a total flow rate of 250 ml/min. The relative humidity (RH) was measured by a calibrated Vaisala RH probe (dynamic range of 0-95% RH), located near the sample. The weight change, (mass relaxation) of the sample as a function of % RH was constantly monitored by the microbalance (accuracy ±0.001 mg). Typically 10-20 mg of sample was placed in a tared mesh stainless steel basket under ambient conditions. The sample was loaded and unloaded at 40% RH and 25° C. (typical room conditions). A moisture sorption isotherm was performed as outlined below (2 scans giving 1 complete cycle). The standard isotherm was performed at 25° C. at 10% RH intervals over a 0-90% RH range.
The software uses a least squares minimisation procedure together with a model of the mass relaxation, to predict an asymptotic value. The measured mass relaxation value must be within 5% of that predicted by the software, before the next % RH value is selected. The minimum equilibration time was set to 1 hour and the maximum to 4 hours. The sample was recovered after completion of the isotherm and re-analysed by XRPD.

A short description of data set [4]: Drying at 50° C./vacuum, re-analysis by XRPD. It counts as physicochemical.
Experimental: as §1

Each structure is given as a SMILES string.

As for `CC(=O)O.COc1cc(-c2cccc3cc([C@H](C)Nc4nc(N)ncc4C#N)n(-c4ccccc4)c(=O)c23)ccn1.COc1cc(-c2cccc3cc([C@H](C)Nc4nc(N)ncc4C#N)n(-c4ccccc4)c(=O)c23)ccn1` [Batch 2 of Form 6], the “Stability at 25° C./93% RH” value in data set [1] is recorded as “Very slight changes”. Also, the “Stability at 40° C./75% RH” value in data set [2] (after 1 week, XRPD) is listed as “Very slight changes”.

In the case of `COc1cc(-c2cccc3cc([C@H](C)Nc4nc(N)ncc4C#N)n(-c4ccccc4)c(=O)c23)ccn1` [Form 4 of the free base of Compound 1], the “XRPD after Storage at 40° C./75% RH” value in data set [2] (screening sample from H2O, after drying) is listed as “No changes”. Moreover, the “GVS behaviour (hydration / desolvation)” value in data set [3] is “hydrates above 80% RH, but reversibly dehydrates back at 40% RH”. Moreover, the “XRPD after drying at 50° C./vacuum” value in data set [4] (screening sample from H2O) was “No changes”.

As to `COc1cc(-c2cccc3cc([C@H](C)Nc4nc(N)ncc4C#N)n(-c4ccccc4)c(=O)c23)ccn1` [Form 5 of the free base of Compound 1], the “XRPD after Storage at 40° C./75% RH” value is on record as “No changes” in data set [2] (screening sample from 2-MeTHF, after drying); “No changes” in data set [2] (screening sample from Acetone, after drying); “No changes; NMR” in data set [2] (screening sample from Acetonitrile, after drying); “No changes” in data set [2] (screening sample from DCM, after drying); “No changes” in data set [2] (screening sample from DCM:MeOH 1:1, after drying); “No changes” in data set [2] (screening sample from DME, after drying). The “XRPD after Storage at 40° C./75% RH” value in data set [2] (screening sample from EtOAc, after drying) was “No changes”; in data set [2] (screening sample from EtOH, after drying), “No changes”; in data set [2] (screening sample from EtOH/5% water, after drying) it was “No changes”; in data set [2] (screening sample from IPA, after drying), “No changes”; in data set [2] (screening sample from MIBK, after drying), “No changes”; in data set [2] (screening sample from MeCN/5% water, after drying), “No changes”. For the same compound, the “XRPD after Storage at 40° C./75% RH” value is “No changes” in data set [2] (screening sample from MeOH, after drying); “No changes” in data set [2] (screening sample from TBME, after drying); “No changes; NMR” in data set [2] (screening sample from THF, after drying); “No changes” in data set [2] (screening sample from THF/5% water, after drying). Further, the “XRPD after drying at 50° C./vacuum” value in data set [4] (screening sample from 2-MeTHF), in data set [4] (screening sample from Acetone), in data set [4] (screening sample from Acetonitrile), in data set [4] (screening sample from DCM), in data set [4] (screening sample from DCM:MeOH 1:1) and in data set [4] (screening sample from DME) was “No changes” throughout. The “XRPD after drying at 50° C./vacuum” value in data set [4] (screening sample from EtOAc), in data set [4] (screening sample from EtOH), in data set [4] (screening sample from EtOH/5% water), in data set [4] (screening sample from IPA), in data set [4] (screening sample from MIBK) and in data set [4] (screening sample from MeCN/5% water) was “No changes” each time. The “XRPD after drying at 50° C./vacuum” value in data set [4] (screening sample from MeOH), in data set [4] (screening sample from TBME), in data set [4] (screening sample from THF) and in data set [4] (screening sample from THF/5% water) was “No changes” in each case.
